{"source": "patent US6447748B1", "about": "“Benzamide compounds for cancer imaging and therapy” (Research Corporation Technologies, Inc., priority 1993, dated 2002)", "key": {"[1]": {"test_system": "human A2058 melanoma xenografts", "assay": "Biodistribution in nude mice xenografted with human melanotic melanoma", "assay_type": "in vivo, Balb/c nu/nu mice", "conditions": "for RATIO Tumor/Blood / RATIO Tumor/Muscle / Biodistribution Blood / Biodistribution Bone / Biodistribution Brain / Biodistribution Heart / Biodistribution Intestine / Biodistribution Kidney / Biodistribution Liver / Biodistribution Lung / Biodistribution Muscle / Biodistribution Spleen / Biodistribution Stomach / Biodistribution Thyroid / Biodistribution Tumor: nude mice, human melanotic melanoma, mean (std. dev.); for Biodistribution Blood / Biodistribution Bone / Biodistribution Brain / Biodistribution Heart / Biodistribution Intestine / Biodistribution Kidney / Biodistribution Liver / Biodistribution Lung / Biodistribution Muscle / Biodistribution Spleen / Biodistribution Stomach / Biodistribution Thyroid / Biodistribution Tumor: n = 6", "method": "A2058 tumor cells, derived from a brain metastasis of human malignant melanoma (Todaro et al. 1980 Proc. Natl. Acad. Sci. USA 77:5258) were obtained from the National Institutes of Health. […] Suspension of 5×10^6 cells (viability greater than 95%) in 0.2 mL of medium were inoculated subcutaneously in female Balb/c nu/nu mice. After about two weeks, solid tumors of about 1 cm in diameter appeared in approximately 85% of all inoculated mice. […] Balb/c nu/nu mice (17-22 g) were injected intravenously with 0.2 ml of a saline solution containing [^125I]PAB (5-6 μCi). […] The values obtained were normalized to a mouse weighing 20 g. The differences between [^125I]PAB and [^125I]DAB were examined by Student's unpaired t tests."}, "[2]": {"test_system": "human squamous cell carcinoma xenografts", "assay": "Biodistribution in nude mice xenografted with human squamous cell carcinoma", "assay_type": "in vivo, Balb/c nu/nu mice", "conditions": "for Biodistribution Blood / Biodistribution Bone / Biodistribution Brain / Biodistribution Heart / Biodistribution Intestine / Biodistribution Kidney / Biodistribution Liver / Biodistribution Lung / Biodistribution Spleen / Biodistribution Stomach / Biodistribution Thyroid / Biodistribution Tumor: nude mice, human squamous cell carcinoma, mean (std. dev.), n = 6", "method": "Non-small cell lung carcinoma cell lines NCI-157, NCI-838 and NCI-1299 were obtained from the National Cancer Institute. The NCI-157 cell line is a squamous carcinoma cell line, while NCI-838 is an adenocarcinoma cell line and NCI-1299 is a large cell lung carcinoma cell. […] Suspension of 5×10^6 cells (viability greater than 95%) in 0.2 mL of medium were inoculated subcutaneously in female Balb/c nu/nu mice. After about two weeks, solid tumors of about 1 cm in diameter appeared in approximately 85% of all inoculated mice. […] Balb/c nu/nu mice (17-22 g) were injected intravenously with 0.2 ml of a saline solution containing [^125I]PAB (5-6 μCi). […] The values obtained were normalized to a mouse weighing 20 g."}}}
{"smiles": "CCN(CC)CCNC(=O)c1ccc([125I])cc1", "note": "[[^125I]DAB, ^125I-N-(diethylaminoethyl)4-iodobenzamide, reference compound]", "values": [{"measurement": "RATIO Tumor/Blood", "setting": "[1]; 1 Hour", "result": "5.68 (2.75)"}, {"measurement": "RATIO Tumor/Muscle", "setting": "[1]; 1 Hour", "result": "5.33 (1.65)"}, {"measurement": "Biodistribution Blood", "setting": "[1]; 1 Hour", "result": "1.03 (.318) % ID/g"}, {"measurement": "Biodistribution Bone", "setting": "[1]; 1 Hour", "result": "1.04 (.476) % ID/g"}, {"measurement": "Biodistribution Brain", "setting": "[1]; 1 Hour", "result": "1.04 (.0855) % ID/g"}, {"measurement": "Biodistribution Heart", "setting": "[1]; 1 Hour", "result": "1.67 (.210) % ID/g"}, {"measurement": "Biodistribution Intestine", "setting": "[1]; 1 Hour", "result": "5.04 (1.47) % ID/g"}, {"measurement": "Biodistribution Kidney", "setting": "[1]; 1 Hour", "result": "4.63 (.905) % ID/g"}, {"measurement": "Biodistribution Liver", "setting": "[1]; 1 Hour", "result": "12.7 (1.69) % ID/g"}, {"measurement": "Biodistribution Lung", "setting": "[1]; 1 Hour", "result": "6.32 (1.55) % ID/g"}, {"measurement": "Biodistribution Muscle", "setting": "[1]; 1 Hour", "result": "0.988 (.125) % ID/g"}, {"measurement": "Biodistribution Spleen", "setting": "[1]; 1 Hour", "result": "3.46 (.206) % ID/g"}, {"measurement": "Biodistribution Stomach", "setting": "[1]; 1 Hour", "result": "3.84 (1.98) % ID/g"}, {"measurement": "Biodistribution Thyroid", "setting": "[1]; 1 Hour", "result": "5.68 (1.02) % ID/g"}, {"measurement": "Biodistribution Tumor", "setting": "[1]; 1 Hour", "result": "5.18 (1.31) % ID/g"}, {"measurement": "RATIO Tumor/Blood", "setting": "[1]; 6 Hour", "result": "28.1 (5.84)"}, {"measurement": "RATIO Tumor/Muscle", "setting": "[1]; 6 Hour", "result": "33.3 (14.0)"}, {"measurement": "Biodistribution Blood", "setting": "[1]; 6 Hour", "result": "1.03 (0.197) % ID/g"}, {"measurement": "Biodistribution Bone", "setting": "[1]; 6 Hour", "result": "0.100 (.0297) % ID/g"}, {"measurement": "Biodistribution Brain", "setting": "[1]; 6 Hour", "result": "0.132 (.0204) % ID/g"}, {"measurement": "Biodistribution Heart", "setting": "[1]; 6 Hour", "result": "0.150 (.0329) % ID/g"}, {"measurement": "Biodistribution Intestine", "setting": "[1]; 6 Hour", "result": "0.423 (.0963) % ID/g"}, {"measurement": "Biodistribution Kidney", "setting": "[1]; 6 Hour", "result": "0.435 (.0909) % ID/g"}, {"measurement": "Biodistribution Liver", "setting": "[1]; 6 Hour", "result": "3.74 (.427) % ID/g"}, {"measurement": "Biodistribution Lung", "setting": "[1]; 6 Hour", "result": "0.458 (.0993) % ID/g"}, {"measurement": "Biodistribution Muscle", "setting": "[1]; 6 Hour", "result": "0.0967 (.0356) % ID/g"}, {"measurement": "Biodistribution Spleen", "setting": "[1]; 6 Hour", "result": "0.260 (.0990) % ID/g"}, {"measurement": "Biodistribution Stomach", "setting": "[1]; 6 Hour", "result": "0.475 (.164) % ID/g"}, {"measurement": "Biodistribution Thyroid", "setting": "[1]; 6 Hour", "result": "0.400 (.124) % ID/g"}, {"measurement": "Biodistribution Tumor", "setting": "[1]; 6 Hour", "result": "2.83 (.388) % ID/g"}, {"measurement": "RATIO Tumor/Blood", "setting": "[1]; 24 Hour", "result": "15.5 (4.69)"}, {"measurement": "RATIO Tumor/Muscle", "setting": "[1]; 24 Hour", "result": "39.7 (9.61)"}, {"measurement": "Biodistribution Blood", "setting": "[1]; 24 Hour", "result": "0.0350 (0.0084) % ID/g"}, {"measurement": "Biodistribution Bone", "setting": "[1]; 24 Hour", "result": "0.0133 (.0052) % ID/g"}, {"measurement": "Biodistribution Brain", "setting": "[1]; 24 Hour", "result": "0.0033 (.0052) % ID/g"}, {"measurement": "Biodistribution Heart", "setting": "[1]; 24 Hour", "result": "0.0233 (.0175) % ID/g"}, {"measurement": "Biodistribution Intestine", "setting": "[1]; 24 Hour", "result": "0.123 (.0717) % ID/g"}, {"measurement": "Biodistribution Kidney", "setting": "[1]; 24 Hour", "result": "0.065 (.0197) % ID/g"}, {"measurement": "Biodistribution Liver", "setting": "[1]; 24 Hour", "result": "1.12 (.232) % ID/g"}, {"measurement": "Biodistribution Lung", "setting": "[1]; 24 Hour", "result": "0.0633 (.0273) % ID/g"}, {"measurement": "Biodistribution Muscle", "setting": "[1]; 24 Hour", "result": "0.0150 (.0084) % ID/g"}, {"measurement": "Biodistribution Spleen", "setting": "[1]; 24 Hour", "result": "0.0350 (.023) % ID/g"}, {"measurement": "Biodistribution Stomach", "setting": "[1]; 24 Hour", "result": "0.445 (.386) % ID/g"}, {"measurement": "Biodistribution Tumor", "setting": "[1]; 24 Hour", "result": "0.553 (.241) % ID/g"}, {"measurement": "amount in tumors relative to livers", "setting": "[1]; 24 hrs., melanoma xenograft", "result": "about half"}, {"measurement": "Biodistribution Blood", "setting": "[2]; 1 hr.", "result": "1.35 (0.42) % ID/g"}, {"measurement": "Biodistribution Bone", "setting": "[2]; 1 hr.", "result": "1.85 (0.22) % ID/g"}, {"measurement": "Biodistribution Brain", "setting": "[2]; 1 hr.", "result": "1.57 (0.05) % ID/g"}, {"measurement": "Biodistribution Heart", "setting": "[2]; 1 hr.", "result": "2.21 (0.16) % ID/g"}, {"measurement": "Biodistribution Intestine", "setting": "[2]; 1 hr.", "result": "5.64 (0.58) % ID/g"}, {"measurement": "Biodistribution Kidney", "setting": "[2]; 1 hr.", "result": "7.64 (0.35) % ID/g"}, {"measurement": "Biodistribution Liver", "setting": "[2]; 1 hr.", "result": "13.77 (0.72) % ID/g"}, {"measurement": "Biodistribution Lung", "setting": "[2]; 1 hr.", "result": "6.38 (0.89) % ID/g"}, {"measurement": "Biodistribution Spleen", "setting": "[2]; 1 hr.", "result": "3.58 (0.28) % ID/g"}, {"measurement": "Biodistribution Stomach", "setting": "[2]; 1 hr.", "result": "5.41 (0.53) % ID/g"}, {"measurement": "Biodistribution Thyroid", "setting": "[2]; 1 hr.", "result": "8.22 (0.72) % ID/g"}, {"measurement": "Biodistribution Tumor", "setting": "[2]; 1 hr.", "result": "5.13 (0.74) % ID/g"}, {"measurement": "Biodistribution Blood", "setting": "[2]; 6 hr.", "result": "0.301 (0.04) % ID/g"}, {"measurement": "Biodistribution Bone", "setting": "[2]; 6 hr.", "result": "0.21 (0.01) % ID/g"}, {"measurement": "Biodistribution Brain", "setting": "[2]; 6 hr.", "result": "0.23 (0.05) % ID/g"}, {"measurement": "Biodistribution Heart", "setting": "[2]; 6 hr.", "result": "0.38 (0.11) % ID/g"}, {"measurement": "Biodistribution Intestine", "setting": "[2]; 6 hr.", "result": "1.34 (0.27) % ID/g"}, {"measurement": "Biodistribution Kidney", "setting": "[2]; 6 hr.", "result": "1.07 (0.16) % ID/g"}, {"measurement": "Biodistribution Liver", "setting": "[2]; 6 hr.", "result": "5.84 (0.51) % ID/g"}, {"measurement": "Biodistribution Lung", "setting": "[2]; 6 hr.", "result": "1.07 (0.14) % ID/g"}, {"measurement": "Biodistribution Spleen", "setting": "[2]; 6 hr.", "result": "0.51 (0.08) % ID/g"}, {"measurement": "Biodistribution Stomach", "setting": "[2]; 6 hr.", "result": "2.7 (0.98) % ID/g"}, {"measurement": "Biodistribution Thyroid", "setting": "[2]; 6 hr.", "result": "1.48 (0.55) % ID/g"}, {"measurement": "Biodistribution Tumor", "setting": "[2]; 6 hr.", "result": "2.17 (0.09) % ID/g"}, {"measurement": "Biodistribution Blood", "setting": "[2]; 24 hr.", "result": "0.027 (0.00) % ID/g"}, {"measurement": "Biodistribution Brain", "setting": "[2]; 24 hr.", "result": "0.00 (0.00) % ID/g"}, {"measurement": "Biodistribution Heart", "setting": "[2]; 24 hr.", "result": "0.00 (0.00) % ID/g"}, {"measurement": "Biodistribution Intestine", "setting": "[2]; 24 hr.", "result": "0.05 (0.01) % ID/g"}, {"measurement": "Biodistribution Kidney", "setting": "[2]; 24 hr.", "result": "0.05 (0.00) % ID/g"}, {"measurement": "Biodistribution Liver", "setting": "[2]; 24 hr.", "result": "1.25 (0.10) % ID/g"}, {"measurement": "Biodistribution Lung", "setting": "[2]; 24 hr.", "result": "0.03 (0.00) % ID/g"}, {"measurement": "Biodistribution Spleen", "setting": "[2]; 24 hr.", "result": "0.01 (0.00) % ID/g"}, {"measurement": "Biodistribution Stomach", "setting": "[2]; 24 hr.", "result": "0.15 (0.02) % ID/g"}, {"measurement": "Biodistribution Thyroid", "setting": "[2]; 24 hr.", "result": "0.03 (0.01) % ID/g"}, {"measurement": "Biodistribution Tumor", "setting": "[2]; 24 hr.", "result": "0.18 (0.02) % ID/g"}, {"measurement": "amount in livers relative to tumors", "setting": "[2]; 24 hrs., squamous cell carcinoma xenograft", "result": "about six-fold"}]}
